Where “and” joins values, the source holds several entries; their conditions need not be identical. Identical values can stand only once.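 Exposure lasted 48 hours, with cells grown in 96-well plates and compounds tested at five concentrations. At the GI50, growth is halved. TGI denotes the concentration required for complete inhibition of growth.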

This is an account of results in PubChem BioAssay (NCI).

This test concerns MDA-MB-468 breast. Briefly: NCI anticancer screen, dose series, 48 h.

Turning to `Cc1ccc(CCC(=O)Nc2ncc(Cc3cc(Cl)ccc3Cl)s2)o1`, the GI50 is 266 nM and the TGI worked out at 20700 nM. For `O=C(CCCCCCc1nc2ccc(Br)cc2[nH]1)NO`, in that order: 248 nM and 6370 nM. On the same counts, the results for `O=c1ccc2nc(-c3ccccc3)nn(-c3ccccc3)c-2c1` are 1020 nM and 2400 nM. In the case of `COc1ccc(/C=C2/SC(=Nc3c(C)nn(-c4ccccc4)c3N)NC2=O)cc1`, the GI50 is 3240 nM and the TGI amounted to 12400 nM. For `Cc1ncc(C(=O)Nc2ccc(CN3CCN(C)CC3)c(C(F)(F)F)c2)cc1C#Cc1c(N)ncc2ccc(C#N)cc12`, in that order: 7860 nM and 28100 nM. As for `COc1ccc([C@H]2c3cc(OC)c(OC)cc3C=C(C=O)C2CO)cc1OC` (some centres undefined), the GI50 was 2550 nM and the TGI is 25100 nM. Take `COc1ccc(C(=O)c2cc3c(N)c(C(=O)Nc4cccc(Cl)c4)sc3nc2C)cc1`: the GI50 was 859 nM and the TGI stood at 2830 nM. Take `O=C1CCC/C=C\C[C@H]2C=C(Cl)C(=O)/C2=C/C[C@H](CCCCC(F)(F)F)OC(=O)CCC/C=C\C[C@H]2C=C(Cl)C(=O)/C2=C/C[C@H](CCCCC(F)(F)F)O1`: the GI50 is 239 nM and the TGI came out at 721 nM.

Consider `CCN1CCN(C(=O)[C@]23CC[C@@H](C)[C@H](C)[C@@H]2C2=CC[C@@H]4[C@@]5(C)C/C(=C/c6cccnc6)C(=O)C(C)(C)[C@@H]5CC[C@@]4(C)[C@]2(C)CC3)CC1`, for which the GI50 was 1650 nM and the TGI amounted to 3430 nM. Consider `CC[C@]1(O)C[C@@H]2CN(Cc3c([nH]c4ccccc34)[C@@](C(=O)OC)(c3cc4c(cc3OC)N(C)[C@H]3[C@@](O)(C(=O)OC)[C@H](OC(C)=O)[C@]5(CC)[C@@H]6C[C@@H]6CN6CC[C@]43[C@@H]65)C2)C1`, for which the GI50 was 17 nM. As to `CCN(CC)CCCCCCCCNc1c2ccc(Cl)cc2nc2ccc(OC)cc12`, the GI50 is 1440 nM and the TGI turned out to be 2770 nM. On the same counts, the results for `FC(F)(F)c1ccc2nc(-c3nc(-c4ccccc4)n4ccccc34)[nH]c2c1` are 2020 nM and 7310 nM.

`COc1cc(-c2cc(-c3ccc(N(C)C)cc3)nc(N3CCC(O)CC3)c2C#N)cc(OC)c1OC`: the GI50 was 1110 nM and the TGI amounted to 4080 nM. Consider `COc1ccc(C(=O)CC2(O)C(=O)Nc3c(Cl)ccc(Cl)c32)cc1` (centres undefined), for which the GI50 was 536 nM. Consider `CCN1CCC(C(=O)Nc2n[nH]c3nnc(-c4cccc(F)c4F)cc23)CC1`, for which the GI50 is 2320 nM and the TGI was 6780 nM. On the same counts, the results for `C(=N\Nc1ncc(-c2cc3cc4c(cc3o2)OCO4)s1)/c1c[nH]c2ccccc12` are 1010 nM and 6050 nM.

As for `CCOc1ccc([C@H]2C(C(=O)c3ccc(Cl)cc3)C3(N[C@@H]2c2ccccc2)C(=O)Nc2ccc(Br)cc23)cc1` (some centres undefined), the GI50 was 16600 nM and the TGI was 41800 nM. Consider `CC/C(=C(\c1ccccc1)c1ccc(OCCN(C)C)cc1)c1ccccc1`, for which the GI50 is 1340 nM and 1950 nM and 3920 nM; the TGI is 6480 nM and 5440 nM and 7970 nM. Take `COc1ccccc1/C=C1\COc2ccc(O)c(O)c2C1=O`: the GI50 is 1240 nM and the TGI was 3290 nM. In the case of `C=C1C(=O)O[C@@H]2[C@@H]3O[C@@](C)(CC/C=C(\C)CCC[C@@H]2C)[C@H](O)C[C@@H]13`, the GI50 is 1150 nM and the TGI is 2800 nM.

Take `N#Cc1c(N)nn(C(=O)c2ccc(NC(=O)c3ccccn3)cc2)c1-c1ccc(Cl)cc1`: the GI50 was 2430 nM and the TGI came to 6640 nM. For `Cc1cc(Cl)n2c(nc3ccccc32)c1C#N`, in that order: 394 nM and 1840 nM. Turning to `CCOC(=O)c1cnc2ccc(Cl)cc2c1NCCCN(C)C`, the GI50 is 16200 nM and the TGI is 45400 nM. On the same counts, the results for `CC(C)Oc1cc(OCC(=O)O)cc(C(=O)N(CCC(N)=O)C(=O)Nc2ccc(C(=O)O)cc2OC(C)C)c1` are greater than 100000 nM and greater than 100000 nM. On the same counts, the results for `Cc1cc2c(-c3nc4ccccc4[nH]3)c(O)c(O)cc2c(O)c1-c1c(C)cc2c(-c3nc4ccccc4[nH]3)c(O)c(O)cc2c1O` are 20 nM and 601 nM.

With `COC12C=C/C(=C(/C(=O)OCc3ccncn3)C(=O)CCCCCCCCC3(OC)C=C/C(=C(/C(=O)OCc4ccncn4)C(=O)CCCCCCCC1)O3)O2`, the GI50 is 239 nM and the TGI is 682 nM. For `C=C1C(=O)OC(CCCCCCCC)C1C(=O)O` (centres undefined), in that order: 5610 nM and 16700 nM. On the same counts, the results for `N#C/C(=C\c1ccc(-c2ccc(F)cc2)o1)C(=O)Nc1ncc(Cc2ccc(Cl)cc2Cl)s1` are 2170 nM and 5010 nM.

In the case of `O=C(Nc1ccccc1)c1cc2c(cc1Cl)Sc1nccn1S2(=O)=O`, the GI50 was 5470 nM and the TGI is 26300 nM. On the same counts, the results for `CC/C=C/[C@@H]1C=C[C@@H]2CCC[C@H]2[C@@H]1CC[C@H](O)[C@H](C)N` are 1240 nM and 2690 nM. Regarding `CCc1cc(C(N)=O)ccc1-n1nc(C(C)C)c2c(-n3cnc(-c4cnn(C)c4)c3)ccnc21`, the GI50 was 821 nM and the TGI is greater than 22200 nM. On the same counts, the results for `CCOC(=O)c1cc2c(n1Cc1cccc(OC)c1)-c1oncc1CC2` are 346 nM and 2490 nM. With `C#Cc1cccc(NC(=O)Nc2ccccc2NC(=O)CCl)c1`, the GI50 is 16000 nM and the TGI worked out at 39300 nM. Regarding `CCCCc1ccc2nc(NC(=O)OC)[nH]c2c1`, the GI50 was 107 nM and the TGI was 1600 nM. For `CCN(CC)CCn1c(=N)n(CC(O)c2ccc(Cl)c(Cl)c2)c2ccccc21` (centres undefined), in that order: 2490 nM and 8090 nM. For the compound `CC(C)(O)Cn1c(=O)c(Oc2ccc(F)cc2F)cc2cnc(NC3CCOCC3)nc21`, the GI50 was greater than 25000 nM and the TGI was greater than 25000 nM. With `COc1ccc(CN2CCc3c(Cl)nc(N)nc3C2=O)c(OC)c1`, the GI50 was 5850 nM and the TGI stood at 33100 nM.

Regarding `O=C(Nc1ccc(Cl)c(Cl)c1)Nc1ccc(Cl)c([N+](=O)[O-])c1`, the GI50 was 884 nM and the TGI amounted to 3520 nM.

Take `COc1c(O)c2ccccc2c2cc(O)ccc12`: the GI50 was 3700 nM and the TGI was found to be 15000 nM.

As for `CCOC(=O)c1c(NC(=O)c2ccc(C(F)(F)F)cc2)sc2c3c(ccc12)OCN(C)C3`, the GI50 is 1560 nM and the TGI worked out at 3180 nM. On the same counts, the results for `COc1cc([C@@H]2c3cc4c(cc3[C@H](OC3OC5COC(c6ccccc6)OC5C(O)C3O)[C@H]3COC(=O)[C@H]23)OCO4)cc(OC)c1OC` (some centres undefined) are 472 nM and 19600 nM.

Turning to `COc1cc[c]([Hg][Cl])cc1`, the GI50 is 1660 nM and the TGI is 3350 nM. For the compound `CCc1nc(N)nc(N)c1-c1ccc(Cl)cc1`, the GI50 was 11400 nM and the TGI is greater than 100000 nM.
